Each structure is given as a SMILES string. Active and inactive are the calls of the source. No cut-off for these calls is given here.

The record followed here is ChEMBL document CHEMBL4118239, “Novel leucine ureido derivatives as aminopeptidase N inhibitors using click chemistry” (Bioorg Med Chem, 2018).

The target in data set [1] is T1, Aminopeptidase N (Sus scrofa, UniProt P15145).
T1 sequence (P15145 whole entry): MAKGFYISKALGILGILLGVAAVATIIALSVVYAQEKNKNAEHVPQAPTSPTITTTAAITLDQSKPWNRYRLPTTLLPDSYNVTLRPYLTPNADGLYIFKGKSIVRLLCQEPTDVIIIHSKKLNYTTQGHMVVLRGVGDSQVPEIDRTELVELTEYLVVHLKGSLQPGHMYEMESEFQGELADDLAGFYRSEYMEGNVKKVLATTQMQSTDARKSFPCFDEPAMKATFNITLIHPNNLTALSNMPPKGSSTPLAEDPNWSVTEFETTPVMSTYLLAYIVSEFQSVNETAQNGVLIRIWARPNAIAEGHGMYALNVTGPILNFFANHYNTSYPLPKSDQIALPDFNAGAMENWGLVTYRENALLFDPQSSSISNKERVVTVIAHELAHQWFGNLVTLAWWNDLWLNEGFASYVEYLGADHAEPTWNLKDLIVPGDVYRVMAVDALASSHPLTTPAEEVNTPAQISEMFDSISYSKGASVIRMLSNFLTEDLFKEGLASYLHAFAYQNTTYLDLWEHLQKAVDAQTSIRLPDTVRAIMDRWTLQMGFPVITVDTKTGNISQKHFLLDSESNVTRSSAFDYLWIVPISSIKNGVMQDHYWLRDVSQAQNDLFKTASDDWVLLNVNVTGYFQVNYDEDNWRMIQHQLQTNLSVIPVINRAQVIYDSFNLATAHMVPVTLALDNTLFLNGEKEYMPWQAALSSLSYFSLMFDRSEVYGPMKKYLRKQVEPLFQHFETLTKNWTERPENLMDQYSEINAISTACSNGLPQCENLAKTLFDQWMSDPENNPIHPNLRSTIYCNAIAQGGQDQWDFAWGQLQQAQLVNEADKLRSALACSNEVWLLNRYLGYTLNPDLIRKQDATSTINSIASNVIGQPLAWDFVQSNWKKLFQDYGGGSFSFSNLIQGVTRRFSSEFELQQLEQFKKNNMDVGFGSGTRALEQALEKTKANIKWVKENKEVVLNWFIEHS
Briefly: Inhibition of APN in porcine kidney microsomes using L-Leu-pnitroanilide as substrate pretreated for 5 mins followed by substrate addition measured after 30 mins.

For data set [2], the target named is T2, Aminopeptidase N (Homo sapiens, UniProt P15144). Put plainly: Inhibition of APN in human PLC/PRF/5 cells using L-Leu-pnitroanilide as substrate pretreated for 5 mins followed by substrate addition measured after 1 hr. The format is cell-based.
Data set [3] has as its target T2, Aminopeptidase N. Put plainly: Inhibition of APN in human ES2 cells using L-Leu-pnitroanilide as substrate pretreated for 5 mins followed by substrate addition measured after 1 hr. The format is cell-based.
Another data set deals with U-937. Briefly: cells. Particulars: Homo sapiens, U-937, 48 h.
The next data set has as its system HCT-116. Briefly: cells. The conditions noted are these: Homo sapiens, HCT-116, 48 h.
A short description of the next data set: cells. The conditions noted are these: Homo sapiens, ES-2, 48 h.
The test system of a further data set is K562. Put plainly: cells. The conditions noted are these: Homo sapiens, K562, 48 h.
Another data set has as its system A549. Briefly: cells. The conditions noted are these: Homo sapiens, A549, 48 h.
Another data set concerns PLC. Briefly: cells. Particulars: Homo sapiens, 48 h.
For another data set, the system named is PC-3. Put plainly: cells. Particulars: Homo sapiens, PC-3, 48 h.
Another data set deals with MDA-MB-231. Put plainly: Antiproliferative activity against human MDA-MB-231 cells after 48 hrs by MTT assay. The conditions noted are these: MDA-MB-231, 48 h.
Another data set relates to H22. Put plainly: Anti-metastatic activity against mouse H22 cells implanted in Kunming mouse assessed as reduction in number of metastatic nodes at 60 mg/kg, ip administered once daily for 12 days measured on day 13 by bouin's staining based assay relative to control. The format is functional. Also noted: scale not given: the % may be the effect or the level left.
In data set [4] the test system is HUVEC. Put plainly: Antiangiogenic activity in HUVEC assessed as inhibition of capillary-like tube formation at 100 uM after 4 hrs by matrigel-based assay. The format is functional, cell-based. The conditions noted are these: Homo sapiens.
The test system of data set [5] is Thoracic aorta. Briefly: Antiangiogenic activity in Sprague-Dawley rat thoracic aorta ring assessed as reduction in micro-vessel growth at 100 uM supplemented with fresh medium containing compound every 3 for 9 days measured on day 9 by matrigel-based inverted microscopic analysis. The format is functional, tissue-based.
The subject of data set [6] is Mus musculus. Briefly: Toxicity in Kunming mouse implanted with mouse H22 cells assessed as body weight loss at 60 mg/kg, ip administered once daily for 12 days measured every 2 days during compound dosing. The class given is organism-based. The conditions noted are these: in vivo.
The test system of data set [7] is Mus musculus. Briefly: Hepatotoxicity in Kunming mouse implanted with mouse H22 cells at 60 mg/kg, ip administered once daily for 12 days. The class given is toxicity, organism-based. Particulars: in vivo, 288 h.
Data set [8] relates to Mus musculus. Put plainly: Toxicity in Kunming mouse implanted with mouse H22 cells assessed as effect on spleen at 60 mg/kg, ip administered once daily for 12 days. The format is organism-based. The conditions noted are these: in vivo, 288 h.
Data set [9] deals with HUVEC. Put plainly: Antiangiogenic activity in HUVEC assessed as inhibition of capillary-like tube formation after 4 hrs by matrigel-based assay. The class given is functional, cell-based. Particulars: Homo sapiens.
Data set [10] concerns Thoracic aorta. Put plainly: Antiangiogenic activity in Sprague-Dawley rat thoracic aorta ring assessed as reduction in micro-vessel growth supplemented with fresh medium containing compound every 3 for 9 days measured on day 9 by matrigel-based inverted microscopic analysis. The format is functional, tissue-based.

T2 sequence (P15144 whole entry): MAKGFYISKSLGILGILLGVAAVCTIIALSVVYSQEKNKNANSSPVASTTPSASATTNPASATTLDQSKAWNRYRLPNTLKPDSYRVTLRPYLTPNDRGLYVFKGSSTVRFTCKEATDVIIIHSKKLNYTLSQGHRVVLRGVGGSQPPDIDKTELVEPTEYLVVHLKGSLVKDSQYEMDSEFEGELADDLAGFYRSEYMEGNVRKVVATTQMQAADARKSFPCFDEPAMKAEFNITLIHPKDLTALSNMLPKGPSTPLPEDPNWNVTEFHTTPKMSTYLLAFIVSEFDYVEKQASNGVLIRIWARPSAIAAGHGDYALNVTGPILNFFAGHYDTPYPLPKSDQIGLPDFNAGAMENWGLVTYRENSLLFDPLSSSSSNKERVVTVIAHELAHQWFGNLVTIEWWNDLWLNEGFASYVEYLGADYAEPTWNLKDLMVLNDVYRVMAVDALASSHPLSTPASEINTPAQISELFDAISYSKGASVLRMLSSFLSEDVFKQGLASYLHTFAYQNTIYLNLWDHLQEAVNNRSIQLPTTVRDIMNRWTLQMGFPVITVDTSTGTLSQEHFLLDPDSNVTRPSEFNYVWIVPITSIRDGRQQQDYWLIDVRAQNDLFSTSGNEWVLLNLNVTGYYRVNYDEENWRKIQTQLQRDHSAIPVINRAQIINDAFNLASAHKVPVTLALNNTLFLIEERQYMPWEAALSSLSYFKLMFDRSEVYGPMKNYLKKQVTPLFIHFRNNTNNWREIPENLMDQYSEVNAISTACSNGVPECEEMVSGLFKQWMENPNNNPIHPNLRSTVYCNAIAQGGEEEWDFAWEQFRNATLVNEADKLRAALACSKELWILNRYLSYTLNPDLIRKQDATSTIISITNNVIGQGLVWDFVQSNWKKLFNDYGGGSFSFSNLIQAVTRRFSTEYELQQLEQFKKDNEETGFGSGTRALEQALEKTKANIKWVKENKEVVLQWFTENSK
Description for PLC: Antiproliferative activity against human PLC cells after 48 hrs by MTT assay
Description for U-937: Antiproliferative activity against human U937 cells after 48 hrs by MTT assay

`CC(C)C[C@H](NC(=O)NCc1cn(Cc2cccc(Cl)c2)nn1)C(=O)NO`: the IC50 on Aminopeptidase N [1] came to 3.1 µM.
Same read-out and setting: next, `COc1cccc(OC)c1Cn1cc(CNC(=O)N[C@@H](CC(C)C)C(=O)NO)nn1`: 0.47 µM.
On the same count and under the same terms, next, `CC(C)C[C@H](NC(=O)NCc1cn(Cc2ccc(C#N)cc2)nn1)C(=O)NO`: 1.4 µM.
Take `COc1ccccc1Cn1cc(CNC(=O)N[C@@H](CC(C)C)C(=O)NO)nn1`: the IC50 on Aminopeptidase N [1] is 0.65 µM; at Aminopeptidase N [2], 15.3 µM; at Aminopeptidase N [3] it was 6.5 µM.
`CC(C)C[C@H](NC(=O)NCc1cn(Cc2ccccc2N)nn1)C(=O)NO`: the IC50 on Aminopeptidase N [1] turned out to be 0.68 µM.
For `CC(C)C[C@H](NC(=O)NCc1cn(Cc2ccccc2[N+](=O)[O-])nn1)C(=O)NO`, on Aminopeptidase N [1], the IC50 came out at 3.4 µM.
Same read-out and setting: next, `CC(C)C[C@H](NC(=O)NCc1cn(Cc2ccccc2Br)nn1)C(=O)NO`: 0.88 µM; `CCOc1ccc(Cn2cc(CNC(=O)N[C@@H](CC(C)C)C(=O)NO)nn2)cc1`: 1.5 µM.
In the case of `CCOc1ccccc1Cn1cc(CNC(=O)N[C@@H](CC(C)C)C(=O)NO)nn1`, the IC50 on Aminopeptidase N [1] was 0.44 µM; at Aminopeptidase N [2], 5 µM; at Aminopeptidase N [3], 2.1 µM.
Regarding `CC(C)C[C@H](NC(=O)NCc1cn(C(C)c2ccccc2)nn1)C(=O)NO` (stereo partly drawn), the IC50 on Aminopeptidase N [1] stood at 1.9 µM.
For the molecule `Cc1ccccc1Cn1cc(CNC(=O)N[C@@H](CC(C)C)C(=O)NO)nn1`, the IC50 was found to be 0.76 µM at Aminopeptidase N [1], 20.6 µM on Aminopeptidase N [2] and 6.9 µM at Aminopeptidase N [3].
Turning to `Cc1cccc(Cn2cc(CNC(=O)N[C@@H](CC(C)C)C(=O)NO)nn2)c1`, the IC50 at Aminopeptidase N [1] was found to be 2.2 µM.
The same measure, in the same setting: for `CC(C)C[C@H](NC(=O)NCc1cn(Cc2ccccc2Cl)nn1)C(=O)NO` the value was 0.67 µM; for `CC(C)C[C@H](NC(=O)NCc1cn(Cc2c(Cl)cccc2Cl)nn1)C(=O)NO`, 0.58 µM.
`CC(C)C[C@H](NC(=O)NCc1cn(Cc2cccc(OCc3ccccc3)c2)nn1)C(=O)NO`: the IC50 came to 0.24 µM on Aminopeptidase N [1]; 70.3 µM in the data set with U-937; 130 µM with HCT-116; 4.9 µM at Aminopeptidase N [2]; 108 µM in “cells”; 99.8 µM in the data set on K562. The IC50 with A549 worked out at 128 µM; with PLC, 112 µM; in the data set on PC-3, 123 µM; with MDA-MB-231, 72.6 µM; on Aminopeptidase N [3] it was 0.87 µM.
As for `CC(C)C[C@H](NC(=O)[C@@H](O)[C@H](N)Cc1ccccc1)C(=O)O` [UBENIMEX], in the data set with H22, the Activity is reported as 64%. Besides, in the data set on HUVEC [4], the inhibition entry is “Active”. In the data set on Thoracic aorta [5], the outcome was Active.
As for `CC(C)C[C@H](NC(=O)NCc1cn(Cc2cccc(C#N)c2)nn1)C(=O)NO`, on Aminopeptidase N [1], the IC50 turned out to be 7.8 µM.
The same measure, in the same setting: next, `COc1cc(Cn2cc(CNC(=O)N[C@@H](CC(C)C)C(=O)NO)nn2)cc(OC)c1OC`: 1.4 µM; `CC(C)C[C@H](NC(=O)NCc1cn(Cc2cccc(N)c2)nn1)C(=O)NO`: 3.7 µM; `CC(C)C[C@H](NC(=O)NCc1cn(Cc2cccc(Br)c2)nn1)C(=O)NO`: 3.5 µM.
As to `CC(C)C[C@H](NC(=O)NCc1cn(Cc2cccc3ccccc23)nn1)C(=O)NO`, at Aminopeptidase N [1], the IC50 worked out at 1.4 µM.
Same read-out and setting: for `Cc1ccc(Cn2cc(CNC(=O)N[C@@H](CC(C)C)C(=O)NO)nn2)cc1` the value was 3.6 µM; for `CCOc1cccc(Cn2cc(CNC(=O)N[C@@H](CC(C)C)C(=O)NO)nn2)c1`, 0.82 µM.
On the same count and under the same terms, next, `CC(C)C[C@H](NC(=O)NCc1cn(C/C=C/c2ccccc2)nn1)C(=O)NO`: 2.2 µM; `O=C(NCc1cn(Cc2ccc(Cl)cc2)nn1)N[C@H](C(=O)NO)c1ccccc1`: 11.3 µM; `COc1cccc(Cn2cc(CNC(=O)N[C@@H](CC(C)C)C(=O)NO)nn2)c1`: 0.91 µM.
On the same count and under the same terms, for `CC(C)C[C@H](NC(=O)NCc1cn(Cc2cccc([N+](=O)[O-])c2)nn1)C(=O)NO` the value was 1.7 µM; for `CC(C)C[C@H](NC(=O)NCc1cn(Cc2cccnc2)nn1)C(=O)NO`, 2.2 µM; for `CC(C)C[C@H](NC(=O)NCc1cn(Cc2ccc3ccccc3c2)nn1)C(=O)NO`, 3.9 µM.
In the case of `COc1ccc(Cn2cc(CNC(=O)N[C@@H](CC(C)C)C(=O)NO)nn2)cc1`, on Aminopeptidase N [1], the IC50 was found to be 1.9 µM.
The same measure, in the same setting: next, `CC(C)C[C@H](NC(=O)NCc1cn(Cc2ccc(Cl)cc2)nn1)C(=O)NO`: 6.9 µM; `COc1ccc(Cn2cc(CNC(=O)N[C@@H](CC(C)C)C(=O)NO)nn2)cc1OC`: 2.6 µM.
`CC(C)C[C@H](NC(=O)NCc1cn(Cc2ccccc2OCc2ccccc2)nn1)C(=O)NO`: the IC50 at Aminopeptidase N [1] turned out to be 0.089 µM; in the data set on U-937, 68.4 µM; in the data set on HCT-116, 81.2 µM; at Aminopeptidase N [2] it was 1.3 µM; in “cells” it was 105 µM; in the data set on K562 it was 85 µM. Also, the IC50 with A549 was 90 µM; in the data set on PLC, 92.8 µM; in the data set on PC-3 it was 119 µM; in the data set with MDA-MB-231, 72.5 µM; at Aminopeptidase N [3], 0.74 µM. The Activity is 71% in the data set on H22; “Non-Toxic” in the data set on Mus musculus [6]; “Non-Toxic” in the data set with Mus musculus [7]; “Non-Toxic” in the data set with Mus musculus [8]; “Dose-dependent effect” in the data set on Thoracic aorta [10]. Also, in the data set with HUVEC [9], the inhibition entry is “Dose-dependent effect”.
As to `CC(C)C[C@H](NC(=O)NCc1cn(Cc2ccccc2)nn1)C(=O)NO`, at Aminopeptidase N [1], the IC50 stood at 2.1 µM.
On the same count and under the same terms, for `CC[C@@H](C)[C@H](NC(=O)NCc1cn(Cc2ccccc2)nn1)C(=O)NO` the value was 13.6 µM.
On the same count and under the same terms, for `CC(C)C[C@H](NC(=O)NCc1cn(CCc2ccccc2)nn1)C(=O)NO` the value was 3.6 µM.
Same read-out and setting: for `Cc1cccc(C)c1Cn1cc(CNC(=O)N[C@@H](CC(C)C)C(=O)NO)nn1` the value was 0.39 µM; for `CC(C)C[C@H](NC(=O)NCc1cn(Cc2ccc([N+](=O)[O-])cc2)nn1)C(=O)NO`, 1 µM.
`COc1ccccc1C(C)n1cc(CNC(=O)N[C@@H](CC(C)C)C(=O)NO)nn1` (stereo partly drawn): the values for the IC50 on Aminopeptidase N [1], on Aminopeptidase N [2] and on Aminopeptidase N [3] were 0.55 µM, 12.3 µM and 4.8 µM, respectively.
`CC(C)C[C@H](NC(=O)NCc1cn(Cc2ccc(Br)cc2)nn1)C(=O)NO`: at Aminopeptidase N [1], the half-maximal inhibitory concentration (IC50) worked out at 7.8 µM.
On the same count and under the same terms, next, `CC(C)C[C@H](NC(=O)NCc1cn(Cc2ccc(Cl)c(Cl)c2)nn1)C(=O)NO`: 5.5 µM; `CC(C)C[C@H](NC(=O)NCc1cn(C(c2ccccc2)c2ccccc2)nn1)C(=O)NO`: 2.3 µM.
